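Method: 48-hour compound exposure of cells in 96-well plates, five concentrations, linear interpolation of endpoints. At the GI50, growth is halved. TGI: total growth inhibition.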
What was measured:
Assay in all cases: growth of human tumour cells (NCI), 48 h
[1] = tested on: RPMI-8226 leukemia
[2] = tested on: NCI/ADR-RES ovarian
[3] = tested on: DU-145 prostate
[4] = tested on: SK-MEL-2 melanoma
[5] = tested on: IGROV1 ovarian
[6] = tested on: EKVX NSCLC
[7] = tested on: OVCAR-4 ovarian
[8] = tested on: OVCAR-3 ovarian

Row | SMILES | GI50 [1] | TGI [1] | GI50 [2] | TGI [2] | GI50 [3] | TGI [3] | GI50 [4] | TGI [4] | GI50 [5] | TGI [5] | GI50 [6] | TGI [6] | GI50 [7] | TGI [7] | GI50 [8] | TGI [8]
1 | CC[C@@H]1[C@@H](C)O[C@@](O)([C@@H](C)[C@H](O)[C@H](C)[C@H]2OC(=O)/C=C/C=C/[C@H](C)[C@@H]([C@@H](C)[C@@H](O)[C@H](C)[C@@]3(O)C[C@@H](O[C@H]4C[C@@H](O)[C@H](O)C(C)O4)[C@H](CC)[C@@H](C)O3)OC(=O)/C=C/C=C/[C@@H]2C)C[C@H]1O[C@@H]1C[C@@H](O)[C@H](O)C(C)O1 (stereo not given in full) | 0.0643 µM | 0.153 µM | 1.05 µM | 7.04 µM | 0.0732 µM | 0.169 µM | 0.0808 µM | 0.197 µM | 0.0903 µM | 0.241 µM | 0.11 µM | 0.468 µM | 0.0741 µM | 0.192 µM | 0.0791 µM | 0.219 µM
2 | Cc1cccc(-c2[nH]ncc2-c2ccc3ncccc3n2)n1 | > 15.1 µM | > 25 µM | 13.7 µM | > 25 µM | 12.8 µM | > 25 µM | 10.7 µM | > 25 µM | 13 µM | > 25 µM | > 20.7 µM | > 25 µM | > 22.4 µM | > 25 µM | 14.4 µM | > 25 µM
3 | C=C(C)[C@@H]1CC[C@]2(COCCC#N)CC[C@]3(C)[C@H](CC[C@@H]4[C@@](C)(CCCNCCC#N)[C@H](C(=C)C)CC[C@]43C)[C@@H]12 | 10.7 µM | 31.4 µM | 20.7 µM | > 50 µM | 21.6 µM | > 50 µM | 10.7 µM | 25.4 µM | 13.1 µM | > 50 µM | 46.9 µM | > 50 µM | 18 µM | > 50 µM | 9.66 µM | 22.4 µM
4 | Cc1ccc(Cl)cc1Nc1nc(C(F)(F)F)ccc1C(=O)N/N=C/c1cccnc1 | 2.94 µM | > 32.5 µM | 3.21 µM | 20.3 µM | 3.38 µM | 9.73 µM | 3.74 µM | 15.3 µM | 4.22 µM | 15.8 µM | 1.32 µM | 9.01 µM | 1.33 µM | 15.4 µM | 2.45 µM | 14.3 µM
5 | COC1=CC(c2ccc[nH]2)=N/C1=C\c1[nH]c(C)c(CC(=O)OCc2ccccc2)c1CCC(=O)OCc1ccccc1 | 0.234 µM | 0.76 µM | 0.579 µM | 3.37 µM | 0.438 µM | 12.1 µM | 0.281 µM | 0.758 µM | 0.4 µM | 2.55 µM | 0.349 µM | 4.13 µM | 0.358 µM | 17.6 µM | 0.363 µM | 1.46 µM
6 | CCOC(=O)c1ccccc1OC(=O)NNc1ccccc1 | 1.11 µM | > 100 µM | 3.8 µM | > 100 µM | > 48.5 µM | > 100 µM |  | > 29.3 µM | 33.9 µM | > 100 µM | 6.07 µM | > 100 µM | 15.2 µM | > 100 µM | 16.3 µM | > 100 µM
7 | NC1=CC(=O)c2cccnc2C1=O | 1.81 µM | 4.58 µM | 2.29 µM | 11.2 µM | 1.58 µM | 2.97 µM | 1.63 µM | 3.14 µM | 1.28 µM | 3.29 µM | 1.58 µM | 3.31 µM | 1.3 µM | 2.78 µM | 1.44 µM | 3.16 µM
8 | CCCCCCCC/C=C/CCCCCCCC1=NC(C)(C)CN1CC(C)O (stereo not given) | 2.28 µM | 5.91 µM | 2.68 µM | 6.9 µM | 1.71 µM | 3.09 µM | 2.28 µM | 5.21 µM | 1.45 µM | 2.84 µM | 4.84 µM | 18.2 µM | 3.08 µM | 11.1 µM | 5.37 µM | 9.96 µM
9 | COc1c(O)c(OC)c2oc(-c3ccc(O)c(O)c3)c(OC)c(=O)c2c1O |  | > 100 µM |  | > 100 µM |  | 98.8 µM |  | 28.3 µM |  | 25.7 µM |  | 94 µM |  | > 100 µM |  | 8.53 µM
10 | CCN(CC)CCNc1ccc(C)c2sc3cc(Cl)ccc3c(=O)c12 | 1.79 µM | 3.86 µM | 1.62 µM | 3.23 µM | 1.78 µM | 3.17 µM | 1.88 µM | 3.72 µM | 1.83 µM | 4.05 µM | 1.47 µM | 3.1 µM | 1.95 µM | 5.13 µM | 1.73 µM | 3.23 µM
11 | O=C1C(Cl)=C(Sc2nnc3c4ccccc4c4ccccc4c3n2)C(=O)c2ccccc21 |  | 39.1 µM |  | > 86.3 µM |  | 22 µM |  | 34.8 µM |  | 21.2 µM |  | 37.7 µM |  | 29.2 µM |  | 27.2 µM
12 | Cc1ccc(NC(=O)c2ccc(CN3CCN(C)CC3)cc2)cc1Nc1nccc(-c2cccnc2)n1 | 7.56 µM | 28.1 µM | 23.8 µM | 68.3 µM | 19.7 µM | 55.6 µM | 22.1 µM | 54.8 µM | 20.5 µM | 45.7 µM | 26.6 µM | 92.1 µM | 18.6 µM | 65.3 µM | 31.1 µM | 72.9 µM

Source: PubChem BioAssay (NCI)
